Data: PubChem BioAssay AID2060898 (Molecular Pharmacology Branch, DTP, NCI, 2025)

Tested on: 616215-338-R-J1-PDC complex spheroid viability
Assay: Anticancer human tumor 616215-338-R-J1-PDC patient-derived colon adenocarcinoma cell line growth inhibition [RAS]
Details: for IC50: curve of first compound; for viability, T/C: stronger effect = lower value
Method in brief: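 Agents were tested in combination matrices in half-log decrements from a top concentration at or near clinical Cmax (10 microM if undetermined). Targets were multi-cell spheroids of tumour lines plus HUVEC and MSC stromal cells.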

[1] = second compound 0.000949 µM, first compound 0.00316 µM
[2] = second compound 0.000949 µM, first compound 0.01 µM
[3] = second compound 0.000949 µM, first compound 0.0316 µM
[4] = second compound 0.000949 µM, first compound 0.1 µM
[5] = second compound 0.000949 µM, first compound 0.316 µM
[6] = second compound 0.000949 µM, first compound 1 µM
[7] = second compound 0.003 µM, first compound 0.00316 µM
[8] = second compound 0.003 µM, first compound 0.01 µM
[9] = second compound 0.003 µM, first compound 0.0316 µM
[10] = second compound 0.003 µM, first compound 0.1 µM
[11] = second compound 0.003 µM, first compound 0.316 µM
[12] = second compound 0.003 µM, first compound 1 µM
[13] = second compound 0.00949 µM, first compound 0.00316 µM
[14] = second compound 0.00949 µM, first compound 0.01 µM
[15] = second compound 0.00949 µM, first compound 0.0316 µM
[16] = second compound 0.00949 µM, first compound 0.1 µM
[17] = second compound 0.00949 µM, first compound 0.316 µM
[18] = second compound 0.00949 µM, first compound 1 µM
[19] = second compound 0.03 µM, first compound 0.00316 µM
[20] = second compound 0.03 µM, first compound 0.01 µM
[21] = second compound 0.03 µM, first compound 0.0316 µM
[22] = second compound 0.03 µM, first compound 0.1 µM
[23] = second compound 0.03 µM, first compound 0.316 µM
[24] = second compound 0.03 µM, first compound 1 µM
[25] = second compound 0.0949 µM, first compound 0.00316 µM
[26] = second compound 0.0949 µM, first compound 0.01 µM
[27] = second compound 0.0949 µM, first compound 0.0316 µM
[28] = second compound 0.0949 µM, first compound 0.1 µM
[29] = second compound 0.0949 µM, first compound 0.316 µM
[30] = second compound 0.0949 µM, first compound 1 µM
[31] = second compound 0.3 µM, first compound 0.00316 µM
[32] = second compound 0.3 µM, first compound 0.01 µM
[33] = second compound 0.3 µM, first compound 0.0316 µM
[34] = second compound 0.3 µM, first compound 0.1 µM
[35] = second compound 0.3 µM, first compound 0.316 µM
[36] = second compound 0.3 µM, first compound 1 µM
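Further: spheroids exposed to agents for seven days before viability readout.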
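Wherever viability, T/C is given: 100% = DMSO vehicle control viability.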

C=CC(=O)Nc1cc(Nc2nccc(-c3cn(C)c4ccccc34)n2)c(OC)cc1N(C)CCN(C)C + CCn1c(-c2cccnc2C(C)OC)c2c3cc(ccc31)N1CCOC(CC(NC(=O)C(C(C)C)N(C)C(=O)C3(F)CCN(C(=O)C#CC(C)(C)N(C)C)CC3)C(=O)N3CCCC(N3)C(=O)OCC(C)(C)C2)C1
IC50 (second compound 0.000949 µM): > 1 µM
IC50 (second compound 0.003 µM): > 1 µM
IC50 (second compound 0.00949 µM): > 1 µM
IC50 (second compound 0.03 µM): > 1 µM
IC50 (second compound 0.0949 µM): > 1 µM
IC50 (second compound 0.3 µM): > 1 µM
viability, T/C [1]: 98.4%
viability, T/C [2]: 105%
viability, T/C [3]: 116%
viability, T/C [4]: 103%
viability, T/C [5]: 102%
viability, T/C [6]: 68.2%
viability, T/C [7]: 103%
viability, T/C [8]: 106%
viability, T/C [9]: 99.8%
viability, T/C [10]: 112%
viability, T/C [11]: 110%
viability, T/C [12]: 66.2%
viability, T/C [13]: 100%
viability, T/C [14]: 99.6%
viability, T/C [15]: 108%
viability, T/C [16]: 110%
viability, T/C [17]: 107%
viability, T/C [18]: 80%
viability, T/C [19]: 109%
viability, T/C [20]: 105%
viability, T/C [21]: 100%
viability, T/C [22]: 110%
viability, T/C [23]: 104%
viability, T/C [24]: 62.7%
viability, T/C [25]: 105%
viability, T/C [26]: 110%
viability, T/C [27]: 111%
viability, T/C [28]: 112%
viability, T/C [29]: 103%
viability, T/C [30]: 66.9%
viability, T/C [31]: 97.1%
viability, T/C [32]: 104%
viability, T/C [33]: 95.9%
viability, T/C [34]: 89.9%
viability, T/C [35]: 97.2%
viability, T/C [36]: 59%

CC(Nc1ccc2c(c1)OCCn1cc(N3C(=O)OCC3C(F)F)nc1-2)C(N)=O (stereo unspecified) + CCn1c(-c2cccnc2C(C)OC)c2c3cc(ccc31)N1CCOC(CC(NC(=O)C(C(C)C)N(C)C(=O)C3(F)CCN(C(=O)C#CC(C)(C)N(C)C)CC3)C(=O)N3CCCC(N3)C(=O)OCC(C)(C)C2)C1
IC50 (second compound 0.000949 µM): > 10 µM
IC50 (second compound 0.003 µM): > 10 µM
IC50 (second compound 0.00949 µM): > 10 µM
IC50 (second compound 0.03 µM): > 10 µM
IC50 (second compound 0.0949 µM): > 10 µM
IC50 (second compound 0.3 µM): 9.65 µM
viability, T/C [3]: 106%
viability, T/C [4]: 112%
viability, T/C [5]: 109%
viability, T/C [6]: 101%
viability, T/C (second compound 0.000949 µM, first compound 3.16 µM): 93.2%
viability, T/C (second compound 0.000949 µM, first compound 10 µM): 91.9%
viability, T/C [9]: 107%
viability, T/C [10]: 116%
viability, T/C [11]: 103%
viability, T/C [12]: 102%
viability, T/C (second compound 0.003 µM, first compound 3.16 µM): 99.7%
viability, T/C (second compound 0.003 µM, first compound 10 µM): 84.2%
viability, T/C [15]: 97.5%
viability, T/C [16]: 116%
viability, T/C [17]: 109%
viability, T/C [18]: 114%
viability, T/C (second compound 0.00949 µM, first compound 3.16 µM): 91.5%
viability, T/C (second compound 0.00949 µM, first compound 10 µM): 78.7%
viability, T/C [21]: 95.4%
viability, T/C [22]: 109%
viability, T/C [23]: 98.9%
viability, T/C [24]: 108%
viability, T/C (second compound 0.03 µM, first compound 3.16 µM): 96.4%
viability, T/C (second compound 0.03 µM, first compound 10 µM): 78.3%
viability, T/C [27]: 123%
viability, T/C [28]: 106%
viability, T/C [29]: 103%
viability, T/C [30]: 92%
viability, T/C (second compound 0.0949 µM, first compound 3.16 µM): 106%
viability, T/C (second compound 0.0949 µM, first compound 10 µM): 90%
viability, T/C [33]: 102%
viability, T/C [34]: 87.6%
viability, T/C [35]: 94.5%
viability, T/C [36]: 68.1%
viability, T/C (second compound 0.3 µM, first compound 3.16 µM): 103%
viability, T/C (second compound 0.3 µM, first compound 10 µM): 48.7%

O=C(c1ccc(F)c(F)c1Nc1ccc(I)cc1F)N1CC(O)([C@@H]2CCCCN2)C1 + CCn1c(-c2cccnc2C(C)OC)c2c3cc(ccc31)N1CCOC(CC(NC(=O)C(C(C)C)N(C)C(=O)C3(F)CCN(C(=O)C#CC(C)(C)N(C)C)CC3)C(=O)N3CCCC(N3)C(=O)OCC(C)(C)C2)C1
IC50 (second compound 0.000949 µM): 0.0649 µM
IC50 (second compound 0.003 µM): 0.0537 µM
IC50 (second compound 0.00949 µM): 0.0578 µM
IC50 (second compound 0.03 µM): 0.0531 µM
IC50 (second compound 0.0949 µM): 0.0475 µM
IC50 (second compound 0.3 µM): 0.0148 µM
viability, T/C [1]: 108%
viability, T/C [2]: 99.2%
viability, T/C [3]: 70.6%
viability, T/C [4]: 34.7%
viability, T/C [5]: 21.4%
viability, T/C [6]: 4.49%
viability, T/C [7]: 112%
viability, T/C [8]: 109%
viability, T/C [9]: 63.3%
viability, T/C [10]: 30.5%
viability, T/C [11]: 18%
viability, T/C [12]: 2.97%
viability, T/C [13]: 105%
viability, T/C [14]: 109%
viability, T/C [15]: 61.5%
viability, T/C [16]: 34.8%
viability, T/C [17]: 22.2%
viability, T/C [18]: 3.61%
viability, T/C [19]: 125%
viability, T/C [20]: 93.9%
viability, T/C [21]: 61.8%
viability, T/C [22]: 34.7%
viability, T/C [23]: 16.9%
viability, T/C [24]: 2.6%
viability, T/C [25]: 101%
viability, T/C [26]: 87.9%
viability, T/C [27]: 59.2%
viability, T/C [28]: 31.2%
viability, T/C [29]: 13.3%
viability, T/C [30]: 2.27%
viability, T/C [31]: 85.8%
viability, T/C [32]: 58.6%
viability, T/C [33]: 32.8%
viability, T/C [34]: 20.4%
viability, T/C [35]: 5.09%
viability, T/C [36]: 1.18%
